Data: patent US20260008862A1, “Bispecific Anti-BCMA x Anti-CD3 Antibodies and Uses Thereof” (Regeneron Pharmaceuticals, Inc., priority 2018, published 2026)

How the values were obtained:
[1] = tested on: Jurkat/NFATLuc.3C7 cells + HEK293 (BCMA negative) cells; test: Jurkat/NFATLuc reporter bioassay with HEK293 cells; format: cell-based; details: highest RLU / lowest RLU
Experimental: Activity of the anti-BCMA×anti-CD3 bispecific antibodies were assessed in a Jurkat/NFATLuc reporter bioassay utilizing several cell lines with varying levels of BCMA surface expression. The Jurkat cells were engineered to express an NFAT-luciferase reporter (Jurkat/NFATLuc.3C7), and 50,000 Jurkat reporter cells were combined with 50,000 BCMA positive (Daudi, MM1-S, NCI-H929, OPM-2, RPMI-8226, MOLP-8, or Raji) or BCMA negative (HEK293) cells in Thermo Nunclon delta 96 well white microwell plates (Thermo Scientific, Cat #136102) in 50 ul of assay media (RPMI media with 10% FBS and 1% P/S/G). Three-fold serial dilutions of the BCMA×CD3 bispecific antibodies (mAb25441 D or mAb25442D), or a bivalent anti-BCMA antibody (mAb21581) were immediately added in 50 μL of assay buffer. The plates were gently agitated and incubated in a 37° C., 5% CO2 incubator for 4-6 hours. NFAT-Luciferase activity was determined using Promega One-Glo (Cat #E6130) and a Perkin Elmer Envision plate reader. RLU were plotted in GraphPad Prism using a four-parameter logistic equation over a 12-point response curve to calculate EC50 values. […] The signal to noise (S:N) is determined by taking the ratio of the highest RLU on the curve to the lowest.

[2] = tested on: established BCMA-expressing NCI-H929 tumors; test: Established NCI-H929 + PBMC xenogenic tumor model, treatment from day 5 (Example 12); format: in vivo, mouse; details: for Average Tumor Size (mm3) ± SEM on Day 5: Day 5 (day of first dose)
Experimental: To determine the in vivo efficacy of anti-BCMA×anti-CD3 bispecific antibodies (Abs), a xenogenic tumor study was performed. Immunodeficient NOD.Cg-Prkdc^scidIl2rg^tm1Wji/SzJ (NSG) mice were subcutaneously implanted with a mixture of 10×10^6 BCMA-expressing NCI-H929 human multiple myeloma tumor cells and 0.5×10^6 human peripheral blood mononuclear cells (PBMC) isolated from a normal, healthy donor. The tumors were allowed to grow and establish for 5 days until they were approximately 70 mm^3 in size. […] The mice were administered these Abs twice per week for a total of seven doses, and tumor growth was assessed over 55 days. While BCMA^+ NCI-H929 tumors grew similarly in the vehicle- and CD3-binding control-treated mice, both BCMA×CD3 Abs that were tested shrank established tumors and prevented the growth of tumors in a dose-dependent manner in vivo.
Implantation and measurement of xenogenic tumors: NSG mice were subcutaneously implanted with a mixture of 10×10^6 BCMA-expressing NCI-H929 multiple myeloma cells and 0.5×10^6 PBMC derived from a normal, healthy donor. The tumors were allowed to grow and establish for 5 days until they were approximately 70 mm^3 in size. […] The mice were administered Abs twice per week for a total of seven doses. Tumor growth was measured with calipers twice per week for the duration of the experiment.
Calculation of xenogenic tumor growth and inhibition: In order to determine tumor volume by external caliper, the greatest longitudinal diameter (length in mm) and the greatest transverse diameter (width in mm) were determined. Tumor volumes based on caliper measurements were calculated by the formula: Volume (mm^3) […] (length×width^2)/2.

[3] = tested on: BCMA+ OPM-2-luciferase tumors; test: OPM-2-luciferase intravenous xenogenic tumor model, BLI (Example 15); format: in vivo, mouse; details: for tumor burden (in words): 0.4 mg/kg on days 21, 25 and 28
Experimental: (§1) To determine the in vivo efficacy of anti-BCMA×anti-CD3 bispecific antibodies (Abs), a xenogenic tumor study was performed. On day 0, immunodeficient NOD.Cg-Prkdc^scidIl2rg^tm1Wji/SzJ (NSG) mice were intravenously administered 2×10^6 BCMA^+ OPM-2 human multiple myeloma tumor cells that were engineered to also express firefly luciferase (OPM-2-luciferase cells). On day 10, the mice were intraperitoneally injected with 4×10^6 human peripheral blood mononuclear cells (PBMC) from a normal, healthy donor. […] The mice were administered these Abs twice more on days 25 and 28, for a total of three doses. Tumor growth was assessed through day 61 by measuring tumor bioluminescence (BLI) in anesthetized animals. As a positive control, a group of mice (n=5) was given only OPM-2-luciferase cells, but not PBMC or antibody.
as §1, with “Implantation and measurement” for “To determine the in vivo efficacy”, “of” for “of anti-BCMA×anti-CD3 bispecific antibodies (Abs), a”, “tumors:” for “tumor study was performed.”
Measurement of xenogenic tumor growth: BLI imaging was used to measure tumor burden. Mice were injected IP with 150 mg/kg of the luciferase substrate D-luciferin suspended in PBS. Five minutes after this injection, BLI imaging of the mice was performed under isoflurane anesthesia using the Xenogen IVIS system. Image acquisition was carried out with the field of view at D, subject height of 1.5 cm, and medium binning level with automatic exposure time determined by the Living Image Software. BLI signals were extracted using Living Image software: regions of interest were drawn around each tumor mass and photon intensities were recorded as p/s/cm2/sr.

Substance | S:N [1] | Average Tumor Size (mm3) ± SEM on Day 5 ([2]; 0.04 mg/kg) [mm3] | Average Tumor Size (mm3) ± SEM on Day 8 ([2]; 0.04 mg/kg) [mm3] | Average Tumor Size (mm3) ± SEM on Day 12 ([2]; 0.04 mg/kg) [mm3] | Average Tumor Size (mm3) ± SEM on Day 15 ([2]; 0.04 mg/kg) [mm3] | Average Tumor Size (mm3) ± SEM on Day 19 ([2]; 0.04 mg/kg) [mm3] | Average Tumor Size (mm3) ± SEM on Day 22 ([2]; 0.04 mg/kg) [mm3] | Average Tumor Size (mm3) ± SEM on Day 5 ([2]; 0.4 mg/kg) [mm3] | Average Tumor Size (mm3) ± SEM on Day 8 ([2]; 0.4 mg/kg) [mm3] | Average Tumor Size (mm3) ± SEM on Day 12 ([2]; 0.4 mg/kg) [mm3] | Average Tumor Size (mm3) ± SEM on Day 15 ([2]; 0.4 mg/kg) [mm3] | Average Tumor Size (mm3) ± SEM on Day 19 ([2]; 0.4 mg/kg) [mm3] | Average Tumor Size (mm3) ± SEM on Day 22 ([2]; 0.4 mg/kg) [mm3] | Average Tumor Size (mm3) ± SEM on Day 27 ([2]; 0.4 mg/kg) [mm3] | Average Tumor Size (mm3) ± SEM on Day 30 ([2]; 0.4 mg/kg) [mm3] | Average Tumor Size (mm3) ± SEM on Day 35 ([2]; 0.4 mg/kg) [mm3] | Average Tumor Size (mm3) ± SEM on Day 40 ([2]; 0.4 mg/kg) [mm3] | Average Tumor Size (mm3) ± SEM on Day 55 ([2]; 0.4 mg/kg) [mm3] | Average Tumor Size (mm3) ± SEM on Day 5 ([2]; 4 mg/kg) [mm3] | Average Tumor Size (mm3) ± SEM on Day 8 ([2]; 4 mg/kg) [mm3] | further results
REGN5458: anti-BCMA×anti-CD3 bispecific antibody: BCMA HCVR of mAb21581 (SEQ 66), CD3 HCVR of mAb7221G (SEQ 90), common LCVR SEQ 82 | 1 | 58.1 ± 5.6 | 130.3 ± 16.7 | 525.9 ± 71.5 | 1031.2 ± 164.3 | 2467.5 ± 370.0 | 3745.7 ± 541.2 | 69.3 ± 7.3 | 120.3 ± 16.3 | 262.7 ± 61.6 | 476.2 ± 133.5 | 1347.5 ± 334.7 | 2068.5 ± 465.0 | 3463.9 ± 1025.0 | 2144.2 ± 2144.2 | 0 ± 0 | 0 ± 0 | 0 ± 0 | 71.9 ± 10.3 | 64.7 ± 16.4 | Average Tumor Size (mm3) ± SEM on Day 27 ([2]; 0.04 mg/kg): 1589.1 ± 0 mm3; Average Tumor Size (mm3) ± SEM on Day 30 ([2]; 0.04 mg/kg): 2886.5 ± 0 mm3; Average Tumor Size (mm3) ± SEM on Day 12 ([2]; 4 mg/kg): 19.5 ± 10.9 mm3; Average Tumor Size (mm3) ± SEM on Day 15 ([2]; 4 mg/kg): 25.6 ± 19.2 mm3; Average Tumor Size (mm3) ± SEM on Day 19 ([2]; 4 mg/kg): 40.6 ± 32.8 mm3; Average Tumor Size (mm3) ± SEM on Day 22 ([2]; 4 mg/kg): 78.3 ± 60.8 mm3; Average Tumor Size (mm3) ± SEM on Day 27 ([2]; 4 mg/kg): 252.3 ± 185.1 mm3; Average Tumor Size (mm3) ± SEM on Day 30 ([2]; 4 mg/kg): 411.3 ± 307.2 mm3; Average Tumor Size (mm3) ± SEM on Day 35 ([2]; 4 mg/kg): 633.5 ± 473.5 mm3; Average Tumor Size (mm3) ± SEM on Day 40 ([2]; 4 mg/kg): 369.5 ± 369.5 mm3; Average Tumor Size (mm3) ± SEM on Day 55 ([2]; 4 mg/kg): 0 ± 0 mm3; tumor burden (in words) [3]: reduced tumor burdens to background levels in the majority of animals
REGN5459: anti-BCMA×anti-CD3 bispecific antibody: BCMA HCVR of mAb21581 (SEQ 66), CD3 HCVR of mAb7221G20 (SEQ 98), common LCVR SEQ 82 | 1 | 74.9 ± 6.4 | 152.3 ± 20.0 | 462.5 ± 57.7 | 1094.2 ± 78.9 | 2412.5 ± 184.6 | 3285.9 ± 227.3 | 69.5 ± 4.1 | 171.9 ± 23.2 | 233.8 ± 63.5 | 327.2 ± 135.6 | 606.2 ± 288.8 | 815.4 ± 387.1 | 1849.9 ± 903.1 | 661.8 ± 490.1 | 996.8 ± 771.0 | 375.6 ± 375.6 | 0 ± 0 | 61.8 ± 5.2 | 45.8 ± 9.8 | Average Tumor Size (mm3) ± SEM on Day 15 ([2]; 4 mg/kg): 0 ± 0 mm3; Average Tumor Size (mm3) ± SEM on Day 19 ([2]; 4 mg/kg): 0 ± 0 mm3; Average Tumor Size (mm3) ± SEM on Day 22 ([2]; 4 mg/kg): 0 ± 0 mm3; Average Tumor Size (mm3) ± SEM on Day 27 ([2]; 4 mg/kg): 0 ± 0 mm3; Average Tumor Size (mm3) ± SEM on Day 30 ([2]; 4 mg/kg): 0 ± 0 mm3; Average Tumor Size (mm3) ± SEM on Day 35 ([2]; 4 mg/kg): 0 ± 0 mm3; Average Tumor Size (mm3) ± SEM on Day 40 ([2]; 4 mg/kg): 0 ± 0 mm3; Average Tumor Size (mm3) ± SEM on Day 55 ([2]; 4 mg/kg): 0 ± 0 mm3; Radiance [p/s/cm2^2/sr] 5 days post-implantation (mean ± SEM) ([3]; 0.4 mg/kg group, 5 days post-implantation (before first dose on day 21)): 5.09E+05 ± 3.56E+04 p/s/cm2^2/sr; Radiance [p/s/cm2^2/sr] 11 days post-implantation (mean ± SEM) ([3]; 0.4 mg/kg group, 11 days post-implantation (before first dose on day 21)): 6.45E+05 ± 2.39E+04 p/s/cm2^2/sr; Radiance [p/s/cm2^2/sr] 20 days post-implantation (mean ± SEM) ([3]; 0.4 mg/kg group, 20 days post-implantation (before first dose on day 21)): 2.13E+06 ± 1.69E+05 p/s/cm2^2/sr; tumor burden (in words) [3]: reduced tumor burdens to background levels in the majority of animals; Radiance [p/s/cm2^2/sr] 26 days post-implantation (mean ± SEM) ([3]; 0.4 mg/kg, 26 days post-implantation): 1.28E+06 ± 7.36E+05 p/s/cm2^2/sr; Radiance [p/s/cm2^2/sr] 31 days post-implantation (mean ± SEM) ([3]; 0.4 mg/kg, 31 days post-implantation): 1.98E+06 ± 1.36E+06 p/s/cm2^2/sr; Radiance [p/s/cm2^2/sr] 34 days post-implantation (mean ± SEM) ([3]; 0.4 mg/kg, 34 days post-implantation): 4.24E+06 ± 3.69E+06 p/s/cm2^2/sr; Radiance [p/s/cm2^2/sr] 38 days post-implantation (mean ± SEM) ([3]; 0.4 mg/kg, 38 days post-implantation): 3.21E+06 ± 2.52E+06 p/s/cm2^2/sr; Radiance [p/s/cm2^2/sr] 40 days post-implantation (mean ± SEM) ([3]; 0.4 mg/kg, 40 days post-implantation): 3.84E+06 ± 3.34E+06 p/s/cm2^2/sr; Radiance [p/s/cm2^2/sr] 47 days post-implantation (mean ± SEM) ([3]; 0.4 mg/kg, 47 days post-implantation): 7.34E+05 ± 2.62E+04 p/s/cm2^2/sr; Radiance [p/s/cm2^2/sr] 54 days post-implantation (mean ± SEM) ([3]; 0.4 mg/kg, 54 days post-implantation): 6.41E+05 ± 5.96E+04 p/s/cm2^2/sr; Radiance [p/s/cm2^2/sr] 61 days post-implantation (mean ± SEM) ([3]; 0.4 mg/kg, 61 days post-implantation): 6.03E+05 ± 5.29E+04 p/s/cm2^2/sr
